Experimental data taken from patent publication US20130244879A1, “USE OF LIPO-CHITOOLIGOSACCHARIDES TO INITIATE EARLY FLOWERING AND FRUIT DEVELOPMENT IN PLANTS AND RELATED METHODS AND COMPOSITIONS” (NOVOZYMES BIOLOGICALS HOLDING A/S, priority 2003, published 2013).

How the values were obtained:
greenhouse tomatoes = test: Experiment 11: LCO foliar application in greenhouse tomatoes; format: in vivo, tomato; details: 28 days after transplant
Procedure: Tomatoes were seeded and transplanted into 10″ pots 30 days later in the greenhouse. Plants were sprayed with 5 ml (50 ng) LCO solution per plant 10 days after transplant and 14 days after transplant (50 ng×2). Flowering data was collected 28 days after transplant. The same plants as FIG. 2-1 were sampled for fruit data 28 days after transplant.

hot pepper = test: Experiment 17: effect of LCO on hot pepper flowering and fruiting; format: in vivo; details: for increased early flowers over control: at 5 weeks; for increased number of early fruits over control: in 5 weeks
Procedure: 30-day old seedlings were transplanted into 5″ pots and 20 days later (20 DAT) plants received the first LCO spray at 2 ml/plant (50 ng/plant). The 2nd spray was conducted 3 weeks (41 DAT) after the first. Data was collected 5 weeks (55 DAT) after the first LCO application. […]

Cherry tomato = test: Experiment 14: LCO soil application on cherry tomatoes; format: in vivo
Procedure: Cherry tomato seedlings (5-week old) were transplanted into 5″ pots in the greenhouse. LCO solutions were prepared with water and 50 ml/plant was applied to the soil in the pot after transplantation. Ripened fruit (orange or red) were collected 8 weeks after transplantation.

Ridgetown canning tomato = test: Experiment 10: effect of LCO on Ridgetown canning tomato; format: in vivo; details: for Fruit number (on 24 plants) / Fruit number Increase vs. CK (%) / Fruit weight (kg/24 plants) / Fruit weight Increase vs. CK (%): first harvesting
Procedure: The experiment was conducted at Ridgetown College, University of Guelph, Ridgetown, Ontario. Tomatoes were transplanted in single twin rows, 7 m in length spaced 1.65 m apart. Treatments of LCO were applied three times, two weeks before flowering (28 days after transplant), two weeks after flowering (52 days after transplant) and six weeks after flowering (69 days after transplant). Spray applications were applied using a specialized, small plot research CO2 sprayer with a two-nozzled, hand-held boom applying 200 L/ha of spray. Rates were determined based on 38 tomato plants per plot, replicated 4 times, equaling 152 plants per treatment. Early fruit was harvested for yield evaluation on Aug. 20, 2003.

pepper (cv. Camelot) = test: Experiment 7: foliar application of LCO on pepper; format: in vivo
Procedure: 13 pepper seedlings (cv. Camelot, 6-leaf stage) were transplanted in 2 rows per plot (3.5×2.5M^2). The rows were covered with 65 cm width black plastic mulch one week before transplanting. Fertilizer (10-52-10) solution of 250 ppm was applied into the planting hole through the mulch when transplanting (approx. 250 ml per plant). The drip irrigation system was set to twice a week and 4 hours each time, depending on the soil moisture. Plants were sprayed with LCO 14 days after transplanting (5 ml/plant) and 27 days after transplanting (50 ml/plant).

[1] = system: greenhouse-grown tomato plants; test: Experiments 1 and 2: effect of LCO on tomato flowering; format: in vivo; details: for difference in flowering between LCO treated plants and control: Experiment 2
Procedure: Two experiments were performed to investigate effect of LCO on plant's flowering using greenhouse-grown tomato plants.

[2] = applied 2 weeks before and after flowering

Lipo-chitooligosaccharides [LCO]
tomato early flowering (greenhouse tomatoes; 50 ng/plant single or double): improved tomato early flowering | increased fruit set (greenhouse tomatoes; single 50 ng LCO application): approx. 1 fruit/plant | increased early flowers over control (hot pepper; double applications): ≤ 40% | increased number of early fruits over control (hot pepper; double applications): ≤ 284% | increased early flowers over control (hot pepper; single application): up to 5% | increased number of early fruits over control (hot pepper; single application): up to 159% | dose with best fruit enhancement at the early stage (Cherry tomato): 10 ng per plant | increased fruit number (Ridgetown canning tomato; [2]): up to 20% | increased fruit weight (Ridgetown canning tomato; [2]): up to 16% | Fruit number (on 24 plants) (Ridgetown canning tomato; treatment 0-50-0): 209AB | Fruit number Increase vs. CK (%) (Ridgetown canning tomato; treatment 0-50-0): 14.2% | Fruit weight (kg/24 plants) (Ridgetown canning tomato; treatment 0-50-0): 12.598 kg/24 plants | Fruit weight Increase vs. CK (%) (Ridgetown canning tomato; treatment 0-50-0): 16.2% | Fruit number (on 24 plants) (Ridgetown canning tomato; treatment 0-50-75): 191AB | Fruit number Increase vs. CK (%) (Ridgetown canning tomato; treatment 0-50-75): 4.4% | Fruit weight (kg/24 plants) (Ridgetown canning tomato; treatment 0-50-75): 11.352 kg/24 plants | Fruit weight Increase vs. CK (%) (Ridgetown canning tomato; treatment 0-50-75): 4.7% | Fruit number (on 24 plants) (Ridgetown canning tomato; treatment 50-0-0): 206AB | Fruit number Increase vs. CK (%) (Ridgetown canning tomato; treatment 50-0-0): 12.6% | Fruit weight (kg/24 plants) (Ridgetown canning tomato; treatment 50-0-0): 11.916 kg/24 plants | Fruit weight Increase vs. CK (%) (Ridgetown canning tomato; treatment 50-0-0): 9.9% | Fruit number (on 24 plants) (Ridgetown canning tomato; treatment 50-50-0): 219A | Fruit number Increase vs. CK (%) (Ridgetown canning tomato; treatment 50-50-0): 19.7% | Fruit weight (kg/24 plants) (Ridgetown canning tomato; treatment 50-50-0): 12.567 kg/24 plants | Fruit weight Increase vs. CK (%) (Ridgetown canning tomato; treatment 50-50-0): 15.9% | Fruit number (on 24 plants) (Ridgetown canning tomato; treatment 50-75-0): 199AB | Fruit number Increase vs. CK (%) (Ridgetown canning tomato; treatment 50-75-0): 8.7% | Fruit weight (kg/24 plants) (Ridgetown canning tomato; treatment 50-75-0): 11.421 kg/24 plants | Fruit weight Increase vs. CK (%) (Ridgetown canning tomato; treatment 50-75-0): 5.3% | First 4 wk yield, Fruit/plant (pepper (cv. Camelot); 14 ng/plant): 5.79ab Fruit/plant | First 4 wk yield, gram/plant (pepper (cv. Camelot); 14 ng/plant): 784.91ab gram/plant | First 4 wk yield, Fruit/plant (pepper (cv. Camelot); 50 ng/plant): 5.83ab Fruit/plant | First 4 wk yield, gram/plant (pepper (cv. Camelot); 50 ng/plant): 833.79ab gram/plant | First 4 wk yield, Fruit/plant (pepper (cv. Camelot); 75 ng/plant): 5.77ab Fruit/plant | First 4 wk yield, gram/plant (pepper (cv. Camelot); 75 ng/plant): 835.26ab gram/plant | First 4 wk yield, Fruit/plant (pepper (cv. Camelot); 100 ng/plant): 4.87b Fruit/plant | First 4 wk yield, gram/plant (pepper (cv. Camelot); 100 ng/plant): 694.48b gram/plant | First 4 wk yield, Fruit/plant (pepper (cv. Camelot); 141 ng/plant): 6.48a Fruit/plant | First 4 wk yield, gram/plant (pepper (cv. Camelot); 141 ng/plant): 934.83a gram/plant | First 4 wk yield, Fruit/plant (pepper (cv. Camelot); 282 ng/plant): 5.02ab Fruit/plant | First 4 wk yield, gram/plant (pepper (cv. Camelot); 282 ng/plant): 702.87b gram/plant | best dose (pepper (cv. Camelot); 5 ml of 2×10^−8M): 141 ng/plant | increase of fruit number in the early stages (pepper (cv. Camelot); foliar application): approximately 1 fruit per plant | LCO treated plants flowered 3 days earlier than control ([1]; Experiment 1): over 80% | shift in time of flowering ([1]; Experiment 1): 3 days | more plants flowering as compared to control ([1]; Experiment 1, day 4 of assessment): 35% | more plants flowering as compared to control ([1]; Experiment 1, day I of assessment): 25% | difference in flowering between LCO treated plants and control ([1]; day 3 of assessment): 20% | difference in flowering between LCO treated plants and control ([1]; initially): 10%
